Here are results for one compound from US20070249526A1, “PROCESS FOR THE PREPARATION OF CYCLIC PEPTIDES” (priority 2003, published 2007).

Data set [1] can be described thus: physchem. Type of data set: physicochemical. The protocol: The crude product of Example 15 was purified by prep HPLC using 0.5% AcOH in water and 0.5% AcOH in 90% ACN in water as buffers. The crude product was purified in a gradient program and major fraction was collected. After lyophilization, it gave a white powder which failed the solubility test at 10 mg/ml. ^19F NMR confirmed that there were still two TFA salts in the formula (FIG. 1). This product was repurified on the prepHPLC once more, the major fraction was collected and lyophilized to give 3D53. 12 mg of this product dissolved in 1 ml water gave a clear solution.

For data set [2], the system named is rat models of human disease. As to conditions: literature refs 10-15; cited from earlier work.
For data set [3], the target named is T1, human C5a receptor (Homo sapiens, UniProt P21730).
T1 construct: host or cells: human cells; neutrophils, macrophages, polymorphonuclear leukocytes
T1 sequence (P21730 1-350): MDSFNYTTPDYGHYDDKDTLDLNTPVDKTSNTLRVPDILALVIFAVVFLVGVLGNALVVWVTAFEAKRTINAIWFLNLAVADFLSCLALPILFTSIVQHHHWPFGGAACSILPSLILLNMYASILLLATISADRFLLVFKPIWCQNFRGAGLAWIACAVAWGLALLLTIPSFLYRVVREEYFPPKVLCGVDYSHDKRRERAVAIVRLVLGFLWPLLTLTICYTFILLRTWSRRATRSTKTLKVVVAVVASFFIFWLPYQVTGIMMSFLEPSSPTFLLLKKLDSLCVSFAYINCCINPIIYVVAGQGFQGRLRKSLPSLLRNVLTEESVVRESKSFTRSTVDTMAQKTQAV
As to conditions: literature refs 6-9; cited from earlier work.

For data set [4], the target named is T1, human C5a receptor. As to conditions: literature refs 6-9; cited from earlier work. The source holds these as a separate data set.

Usually solubility stands for the concentration that dissolves in the medium under given conditions. A lower solubility goes with a poorly soluble substance. On to `CC(=O)N[C@@H](Cc1ccccc1)C(=O)N[C@H]1CCCNC(=O)[C@H](CCCNC(=N)N)NC(=O)C(Cc2c[nH]c3ccccc23)NC(=O)[C@@H](CC2CCCCC2)NC(=O)C2CCCN2C1=O` (stereo partly drawn) [Compound 1, Ac-Phe[Orn-Pro-D-Cha-Trp-Arg]], for which the solubility in data set [1] is less than 10000 µg/mL. Further, the “amount dissolved giving a clear solution” value in data set [1] (in 1 ml water, product repurified by prepHPLC, no TFA salt by 19F NMR) is listed as not below 12 mg. Moreover, the “inhibition in vivo in rat models of human disease” value in data set [2] was “potent inhibition”. The “inhibition in vitro of C5a binding to human cells” value in data set [3] is “potent inhibition”. Moreover, the “inhibition in vitro of C5a-mediated activation of neutrophils and macrophages, chemotaxis, and cytokine release” value in data set [4] is on record as “potent inhibition”.
